Paper PMC12649549, “Sequence Permutation Generated Lysine and Tryptophan-Rich Antimicrobial Peptides with Enhanced Therapeutic Index” (Antibiotics, 2025)

test system: not listed separately; assay: Calcein dye leakage assay, POPC:LPS LUVs; conditions: POPC:LPS (12.5:1) LUVs, final peptide concentration 2 μg/mL; n = 3
Procedure: (§1) Large unilamellar vesicles (LUVs) containing POPC:LPS (12.5:1, mol/mol) and POPC:cholesterol (2:1, mol/mol) were prepared using the extrusion method and an Avanti small-volume extrusion apparatus(Avanti Polar Lipids). To prepare the vesicles, phospholipids were dissolved in a chloroform/methanol mixture (4:1, v/v), evaporated using nitrogen gas, and suspended in PBS buffer. The lipid suspensions underwent six to eight cycles of freezing and thawing before being extruded ten times through a […] pore size polycarbonate filter, followed by ten times through a […] filter. Calcein-filled LUVs were also prepared by loading calcein-containing buffer (70 mM calcein and 10 mM Tris at pH 7.4) into a Sephadex G-75 column loaded with iso-osmotic buffer (100 mM sodium chloride and 10 mM Tris) to remove unencapsulated calcein. The phospholipid content of the vesicles was determined by assessing inorganic phosphate using the ammonium ferrothiocyanate method described by John Charles Marshall Stewart.
(§2) Calcein leakage induced by peptides was measured using a Perkin-Elmer luminescence spectrofluorimeter with excitation and emission wavelengths of 496 and 515 nm, respectively. Calcein-entrapped LUVs were diluted to a concentration of 10 µM. The maximum degree of leakage was induced by 100 mg/mL Triton X-100.
(§3) The degree of leakage induced by various peptide concentrations was calculated using the formula: Leakage % = ((F − F0)/(Fr − F0)) × 100%, where F0 and Fr represent the initial fluorescence intensities observed without peptide and after adding 100 mg/mL Triton X-100, respectively.

Row | Substance | calcein leakage [%]
1 | Ac-WRKWLKWLAKKKK-NH2 [Peptide W5K02] | 78
2 | Ac-KKKKWRKWLKWLA-NH2 [Peptide W5K11] | 85
3 | Ac-KWRKWLKWLAKKK-NH2 [Peptide W5K01] | 74
4 | Ac-AKKKKWRKWLKWL-NH2 [Peptide W5K10] | 81
5 | Ac-KKWRKWLKWLAKK-NH2 [W5K/A9W] | 82
6 | Ac-KKKWRKWLKWLAK-NH2 [Peptide W5K12] | 82
7 | Ac-WLKWLAKKKKWRK-NH2 [Peptide W5K05] | 69

test system: not listed separately; assay: Calcein dye leakage assay, POPC:Cholesterol LUVs; conditions: POPC:Cholesterol (2:1) LUVs, final peptide concentration 2 μg/mL; n = 3
Procedure: as §1, §2, §3

Row | Substance | calcein leakage
8 | Ac-WRKWLKWLAKKKK-NH2 [Peptide W5K02] | above 60%
9 | Ac-KKKKWRKWLKWLA-NH2 [Peptide W5K11] | above 60%
10 | Ac-KWRKWLKWLAKKK-NH2 [Peptide W5K01] | above 60%
11 | Ac-KKWRKWLKWLAKK-NH2 [W5K/A9W] | above 60%
12 | Ac-KKKWRKWLKWLAK-NH2 [Peptide W5K12] | above 60%

test system: human red blood cells (hRBCs); assay: Hemolytic activity assay; format: cell-based; conditions: 200 μM peptide; hRBCs in PBS, 37 °C, 1 h; absorbance 565 nm; 100% = 1% Triton X-100
Procedure: Equal volumes of peptides and hRBCs were mixed and incubated at 37 °C for 1 h. The supernatant was collected from the samples and tested for absorbance at 565 nm. Zero hemolysis (blank) was defined in PBS buffer, while 100% hemolysis was defined in 1% Triton X-100.
Hemolytic activity was evaluated by testing the ability of the peptides to cause lysis of human red blood cells (hRBCs), both in the presence and absence of the antimicrobial peptide. Blood samples were collected from healthy volunteers and treated with ethylenediaminetetraacetic acid (EDTA) to prevent coagulation. The hRBCs were then washed three times with phosphate-buffered saline (PBS) and pelleted by centrifugation at 800× g for 10 min. Next, the hRBCs were diluted in PBS to a final concentration of 10%. Peptides were serially diluted in PBS ranging from 400 µM to 3.13 µM, and an equal volume of 10% hRBC was added to each dilution. After incubation at 37 °C for 1 h, the supernatant was collected by centrifugation at 800× g for 10 min, and the absorbance at 565 nm was measured. Negative controls (PBS blank) and positive controls (1% Triton X-100 in PBS) were also included. The percentage of hemolysis was calculated using the following formula: %hemolysis = [(Asample − APBS)/(ATritonX-100 − APBS)] × 100%, where A is the absorbance under the specified conditions.

Row | Substance | lysis of RBCs (hemolysis)
13 | Ac-WRKWLKWLAKKKK-NH2 [Peptide W5K02] | ~34%
14 | Ac-KKKKWRKWLKWLA-NH2 [Peptide W5K11] | ~27%
15 | Ac-KWRKWLKWLAKKK-NH2 [Peptide W5K01] | ~25%
16 | Ac-AKKKKWRKWLKWL-NH2 [Peptide W5K10] | less than 10%
17 | Ac-KKWRKWLKWLAKK-NH2 [W5K/A9W] | approximately 35%
18 | Ac-KKKWRKWLKWLAK-NH2 [Peptide W5K12] | ~30%

same assay, conditions: hRBCs in PBS, 37 °C, 1 h, absorbance 565 nm; 108.7 µg/mL(200 µM) used when no detectable hemolytic activity

Row | Substance | HC10 (concentration that induced 10% hemolysis of human red blood cells) [µg/mL]
19 | Ac-WRKWLKWLAKKKK-NH2 [Peptide W5K02] | 16.7
20 | Ac-KWRKWLKWLAKKK-NH2 [Peptide W5K01] | 70.9
21 | Ac-KKWRKWLKWLAKK-NH2 [W5K/A9W] | 30.0
22 | Ac-KKKWRKWLKWLAK-NH2 [Peptide W5K12] | 41.7

same assay, conditions: phosphate buffer, 1 h

Row | Substance | HC10 (concentration that induced 10% hemolysis of human red blood cells) [µg/mL]
23 | Ac-KKKKWRKWLKWLA-NH2 [Peptide W5K11] | 71.0

test system: HaCaT cells; assay: Cell migration assay (in vitro wound healing assay); format: cell-based, human; conditions: 24 h, 4 µg/mL peptide
Procedure: Figure 3 Cell migration rate (In Vitro wound healing rate) of HaCaT cells induced by the designed peptides. […] (Bar: 200 μm) Results are presented as means ± standard deviations (SD); n = 3 (three independent experiments), ns = no significant differences; ** p < 0.01; *** p < 0.001; **** p < 0.0001 compared with PBS (Negative Control) and 100 ng/mL EGF (Positive Control).
For the Cell Migration Assay (in vitro wound healing assay), HaCaT cells (4 × 10^4 cells) were seeded on each side of an ibidi culture insert (ibidi, Germany) in DMEM medium supplemented with 10% fetal bovine serum. The inserts were placed into a 24-well plate and incubated at 37 °C and 5% CO2 overnight. After removing the inserts, 1 mL of serum-free DMEM medium supplemented with different concentrations of peptide was added. Medium without peptide and with 100 ng/mL EGF (epidermal growth factor) were used as negative and positive controls, respectively. The migration area was imaged at 0 and 24 h using an inverted fluorescent microscope (Zeiss/Observer Z1) at 10× magnification, and the area was quantified using ImageJ software(version 1.54g). The repairing rate was calculated using the formula: Repairing Rate = (Area0h-Area24h)/Area0h, where 0 h and 24 h represent the time points at which the images were taken.

Row | Substance | wound healing effect (cell migration rate)
24 | Ac-KKKKWRKWLKWLA-NH2 [Peptide W5K11] | comparable wound healing effects
25 | Ac-AKKKKWRKWLKWL-NH2 [Peptide W5K10] | comparable wound healing effects
26 | Ac-KKWRKWLKWLAKK-NH2 [W5K/A9W] | comparable wound healing effects

same assay, conditions: 24 h, serum-free DMEM, 0.25 µg/mL to 4 µg/mL, compared to the negative control

Row | Substance | wound healing effect (cell migration rate)
27 | Ac-KKKKWRKWLKWLA-NH2 [Peptide W5K11] | superior wound healing effect even at the lowest concentration of 0.25 µg/mL
